Target: BRAF (Homo sapiens, UniProt P15056)
Assay: ELISA kinase assay, phospho-MEK1 readout
Assay type: biochemical

Chain of BRAF (P15056 whole entry): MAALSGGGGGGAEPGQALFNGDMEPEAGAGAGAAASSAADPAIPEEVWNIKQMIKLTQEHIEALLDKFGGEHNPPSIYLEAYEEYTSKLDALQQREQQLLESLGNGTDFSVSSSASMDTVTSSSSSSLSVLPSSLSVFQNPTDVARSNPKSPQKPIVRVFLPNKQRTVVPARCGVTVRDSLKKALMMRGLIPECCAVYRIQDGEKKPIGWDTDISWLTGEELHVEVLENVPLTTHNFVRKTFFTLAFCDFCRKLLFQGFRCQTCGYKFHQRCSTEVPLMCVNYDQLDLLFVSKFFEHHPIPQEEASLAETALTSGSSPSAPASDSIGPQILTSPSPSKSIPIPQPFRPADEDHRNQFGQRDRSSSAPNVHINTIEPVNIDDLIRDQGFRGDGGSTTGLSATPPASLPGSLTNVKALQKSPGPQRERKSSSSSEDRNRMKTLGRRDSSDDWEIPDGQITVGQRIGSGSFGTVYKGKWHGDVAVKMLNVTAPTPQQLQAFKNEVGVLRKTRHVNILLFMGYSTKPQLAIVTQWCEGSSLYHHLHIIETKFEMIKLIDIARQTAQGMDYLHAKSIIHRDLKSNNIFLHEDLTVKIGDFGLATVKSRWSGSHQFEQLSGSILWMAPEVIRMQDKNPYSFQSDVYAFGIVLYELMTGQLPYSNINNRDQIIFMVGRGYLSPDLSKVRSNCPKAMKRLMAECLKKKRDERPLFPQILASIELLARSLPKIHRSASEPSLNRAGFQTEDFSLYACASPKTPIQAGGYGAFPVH

**Q.** Which IC50 does the source give for `N#Cc1c(Oc2ccc(F)c(NC(=O)Cc3cccc(C(F)(F)F)c3)c2)ccc2nc(NC(=O)C3CC3)sc12` [TAK-632] here?
**A.** 0.7 nM

Reference: PMC6504641 (Chembiochem : a European journal of chemical biology, 2018)
